This is an account of results in ChEMBL document CHEMBL3608294, “Epoxylathyrol Derivatives: Modulation of ABCB1-Mediated Multidrug Resistance in Human Colon Adenocarcinoma and Mouse T-Lymphoma Cells” (J Nat Prod, 2015).

The target of data set [1] is T1, ATP-dependent translocase ABCB1 (Homo sapiens, UniProt P08183). Briefly: Inhibition of human ABCB1 expressed in mouse L5178Y cells assessed as fluorescence activity ratio at 2 uM incubated for 10 mins by flow cytometry based rhodamine-123 accumulation assay (reference value: 0.78). The class given is cell-based.
T1 sequence (P08183 whole entry): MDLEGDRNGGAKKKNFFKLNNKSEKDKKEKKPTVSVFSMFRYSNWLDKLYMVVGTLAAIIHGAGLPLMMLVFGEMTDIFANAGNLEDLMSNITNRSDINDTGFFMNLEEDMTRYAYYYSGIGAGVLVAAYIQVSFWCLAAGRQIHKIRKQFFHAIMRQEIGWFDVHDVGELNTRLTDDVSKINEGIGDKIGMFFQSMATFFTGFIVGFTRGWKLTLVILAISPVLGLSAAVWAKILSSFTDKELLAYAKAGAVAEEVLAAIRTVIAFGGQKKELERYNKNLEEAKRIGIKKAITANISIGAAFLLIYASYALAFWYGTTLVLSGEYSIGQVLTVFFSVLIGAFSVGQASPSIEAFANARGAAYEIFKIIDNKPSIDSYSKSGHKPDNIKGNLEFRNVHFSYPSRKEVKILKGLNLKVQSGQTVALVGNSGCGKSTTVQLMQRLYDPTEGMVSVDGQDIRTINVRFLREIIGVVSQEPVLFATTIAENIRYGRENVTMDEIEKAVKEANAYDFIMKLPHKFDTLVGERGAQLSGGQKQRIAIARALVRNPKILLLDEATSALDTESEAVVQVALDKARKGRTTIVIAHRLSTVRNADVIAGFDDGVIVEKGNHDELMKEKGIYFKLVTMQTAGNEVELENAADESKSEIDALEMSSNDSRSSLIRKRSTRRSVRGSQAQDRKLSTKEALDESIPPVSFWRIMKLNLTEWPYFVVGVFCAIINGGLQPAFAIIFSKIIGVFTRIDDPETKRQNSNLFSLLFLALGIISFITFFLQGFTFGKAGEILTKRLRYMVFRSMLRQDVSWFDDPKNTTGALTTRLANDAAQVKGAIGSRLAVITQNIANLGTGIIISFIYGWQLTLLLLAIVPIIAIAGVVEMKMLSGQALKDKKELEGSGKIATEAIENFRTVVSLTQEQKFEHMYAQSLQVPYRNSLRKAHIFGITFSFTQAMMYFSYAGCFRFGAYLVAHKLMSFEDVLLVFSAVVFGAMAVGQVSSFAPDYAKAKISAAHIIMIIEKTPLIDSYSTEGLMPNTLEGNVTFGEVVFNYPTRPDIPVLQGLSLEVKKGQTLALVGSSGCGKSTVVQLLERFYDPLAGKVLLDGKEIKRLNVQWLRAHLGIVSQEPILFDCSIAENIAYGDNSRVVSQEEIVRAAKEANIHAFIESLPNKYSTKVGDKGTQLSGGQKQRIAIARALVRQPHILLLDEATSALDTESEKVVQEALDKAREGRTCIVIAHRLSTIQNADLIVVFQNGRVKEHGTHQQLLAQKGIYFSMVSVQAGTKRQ
Data set [2] addresses T1, ATP-dependent translocase ABCB1. Briefly: Inhibition of human ABCB1 expressed in mouse L5178Y cells assessed as fluorescence activity ratio at 20 uM incubated for 10 mins by flow cytometry based rhodamine-123 accumulation assay (reference value: 0.78). The data set is classed as cell-based.
Data set [3] shares this target. Briefly: Inhibition of ABCB1 in multidrug resistant human COLO320 cells assessed as fluorescence activity ratio at 2 uM incubated for 10 mins by flow cytometry based rhodamine-123 accumulation assay (reference value: 0.62).
The target is the same in data set [4]. Briefly: Inhibition of ABCB1 in multidrug resistant human COLO320 cells assessed as fluorescence activity ratio at 20 uM incubated for 10 mins by flow cytometry based rhodamine-123 accumulation assay (reference value: 0.62).
The target is the same in data set [5]. Briefly: Inhibition of human ABCB1 expressed in mouse L5178Y cells assessed as potentiation of 2 mg/ml doxorubicin-induced cytotoxicty by measuring combination index at 5:1 compound to doxorubicin ratio incubated for 48 hrs by MTT assay. The data set is classed as cell-based.
The target is the same in data set [6]. The data set is described as follows: Activation of human ABCB1 expressed in Sf9 cell membrane vesicles assessed as inorganic phosphate release at 0.8 uM to 100 uM using MgATP by colorimetric ATPase assay.
Data set [7] shares this target. The data set is described as follows: Inhibition of human ABCB1 expressed in Sf9 cell membrane vesicles assessed as reduction in verapamil transport at 0.8 uM to 100 uM using MgATP by colorimetric ATPase assay.
For data set [8] the target is unchanged. The data set is described as follows: Inhibition of human ABCB1 expressed in Sf9 cell membrane vesicles assessed as reduction in verapamil transport at 0.8 uM to 100 uM using MgATP by colorimetric ATPase assay relative to control.
The test system of data set [9] is L5178Y. The data set is described as follows: Antiproliferative activity against chemosensitive wild type parental mouse L5178Y cells incubated for 72 hrs by MTT assay. The class given is functional, cell-based.
Data set [10] relates to L5178Y. Briefly: Antiproliferative activity against human ABCB1 expressing mouse L5178Y cells incubated for 72 hrs by MTT assay. The class given is functional, cell-based.
The subject of data set [11] is L5178Y. Briefly: Selectivity index, ratio of antiproliferative IC50 for wild type parental mouse L5178Y cells to antiproliferative IC50 for human ABCB1 expressing mouse L5178Y cells. The data set is classed as functional.
Data set [12] in a line: Antiproliferative activity against chemosensitive human COLO205 cells incubated for 72 hrs by MTT assay. The following applies: COLO 205, 72 h. The class given is functional, cell-based.
Data set [13] can be described thus: Antiproliferative activity against multidrug resistant human COLO320 cells incubated for 72 hrs by MTT assay. The class given is functional. The following applies: COLO 320, 72 h.
A short description of data set [14]: Selectivity index, ratio of antiproliferative IC50 for chemosensitive human COLO205 cells to antiproliferative IC50 for multidrug resistant human COLO320 cells. The data set is classed as functional, COLO 205.
Data set [15] deals with L5178Y. Briefly: Cytotoxicity against chemosensitive wild type parental mouse L5178Y cells incubated for 24 hrs by MTT assay. The class given is functional, cell-based.
For data set [16], the system named is L5178Y. The data set is described as follows: Cytotoxicity against human ABCB1 expressing mouse L5178Y cells incubated for 24 hrs by MTT assay. The class given is functional, cell-based.
Data set [17] relates to L5178Y. The data set is described as follows: Selectivity index, ratio of cytotoxic IC50 for wild type parental mouse L5178Y cells to cytotoxic IC50 for human ABCB1 expressing mouse L5178Y cells. The class given is functional.
Data set [18] has as its target T1, ATP-dependent translocase ABCB1. The data set is described as follows: Inhibition of human ABCB1 expressed in mouse L5178Y cells assessed as fluorescence activity ratio at 0.2 uM incubated for 10 mins by flow cytometry based rhodamine-123 accumulation assay (reference value: 0.78). The class given is cell-based.
Data set [19] has the same target. The data set is described as follows: Inhibition of ABCB1 in multidrug resistant human COLO320 cells assessed as fluorescence activity ratio at 0.2 uM incubated for 10 mins by flow cytometry based rhodamine-123 accumulation assay (reference value: 0.62).
The target is the same in data set [20]. The data set is described as follows: Inhibition of human ABCB1 expressed in mouse L5178Y cells assessed as potentiation of 2 mg/ml doxorubicin-induced cytotoxicty at 9:1 compound to doxorubicin ratio incubated for 48 hrs by MTT assay. The data set is classed as cell-based.
The subject of a further data set is COLO 205. Briefly: Cytotoxicity against chemosensitive human COLO205 cells incubated for 24 hrs by MTT assay. The data set is classed as functional, cell-based. The note with it: COLO 205, 24 h.
The nature of data set [21]: Cytotoxicity against multidrug resistant human COLO320 cells incubated for 24 hrs by MTT assay. The data set is classed as functional, cell-based. The note with it: COLO 320, 24 h.
The nature of data set [22]: Selectivity index, ratio of cytotoxic IC50 for chemosensitive human COLO205 cells to cytotoxic IC50 for multidrug resistant human COLO320 cells. The data set is classed as functional, COLO 205.
For data set [23], the target named is T1, ATP-dependent translocase ABCB1. Briefly: Inhibition of human ABCB1 expressed in mouse L5178Y cells assessed as potentiation of 2 mg/ml doxorubicin-induced cytotoxicty at 7:1 compound to doxorubicin ratio incubated for 48 hrs by MTT assay. The class given is cell-based.
For data set [24] the target is unchanged. Briefly: Non-competitive inhibition of human ABCB1 expressed in Sf9 cell membrane vesicles assessed as reduction in verapamil transport at >25 uM using MgATP by colorimetric ATPase assay.
For data set [25] the target is unchanged. Briefly: Non-competitive inhibition of human ABCB1 expressed in Sf9 cell membrane vesicles assessed as reduction in vanadate-sensitive ATPase activity at >25 uM using MgATP by colorimetric ATPase assay.

With `CO[C@H]1[C@@H]2[C@H](CC[C@]3(COC(=O)c4ccccc4)O[C@@H]3[C@H]3[C@@H](OC(=O)c4ccccc4)[C@@H](C)C[C@]3(O)C(=O)[C@@H]1C)C2(C)C`, the Ratio in [1] turned out to be 67.06; in [2], 71.78; in data set [3], 9.85; in [4], 13.97; in data set [18] it was 11.85; in data set [19], 6.34. Further, the CI in [5] was 0.057. In addition, the result in [6] was Active. Further, the figures for the “inhibition (INH)” value in data set [7] and in [8] were “Active” and 50%, respectively. Further, the IC50 in the data set with L5178Y [9] was determined as 27 µM; in the data set with L5178Y [10], 27.4 µM; in data set [12], 5.2 µM; in [13], 6.9 µM; with L5178Y [15], 26.1 µM; in the data set on L5178Y [16], 32.6 µM. Also, the “Ratio IC50” value in the data set on L5178Y [11] was found to be 0.99; in [14], 0.76; in the data set with L5178Y [17] it was 0.8.

On to `COc1ccccc1C(=O)OC[C@]1(C)CC[C@H]2[C@@H](/C=C(\C)C(=O)[C@@]3(O)C[C@H](C)[C@H](OC(=O)c4ccccc4OC)[C@@H]3[C@H]1O)C2(C)C`, for which the Ratio in [1] came out at 33.36; in data set [2] it was 55.43; in [3], 4.44; in data set [4], 12.35; in data set [18] it was 2.47; in [19] it was 1.25. Moreover, the CI in data set [20] was found to be 0.051. Besides, the IC50 with L5178Y [9] was 24.4 µM; with L5178Y [10] it was 31.3 µM; in data set [12], 15.5 µM; in data set [13], 17.8 µM; in the data set on L5178Y [15] it was 29.9 µM; in the data set on L5178Y [16], 38.9 µM. Further, the half-maximal inhibitory concentration (IC50) in the data set on COLO 205 was 24.6 µM; in data set [21], 25.1 µM. The “Ratio IC50” value is reported as 0.78 in the data set on L5178Y [11], 0.87 in data set [14], 0.77 with L5178Y [17] and 0.99 in data set [22].

For `C/C1=C\[C@@H]2[C@H](CC[C@]3(CO3)[C@H](OC(=O)N(C)C)[C@H]3[C@@H](O)[C@@H](C)C[C@]3(O)C1=O)C2(C)C`, the Ratio is on record as 0.67 in [1], 1.61 in [2], 1.03 in data set [3] and 1.55 in data set [4]. The CI in [23] worked out at 0.861. The IC50 in the data set with L5178Y [9] was greater than 100 µM; with L5178Y [10] it was greater than 100 µM; in [12], 69 µM; in data set [13], 69 µM; in the data set with L5178Y [15], greater than 100 µM; with L5178Y [16], greater than 100 µM. The IC50 in the data set on COLO 205 was 41 µM; in [21], greater than 100 µM. Moreover, the “Ratio IC50” value in [14] is given as 1; in the data set on L5178Y [17] it was greater than 100; in data set [22], less than 0.41.

With `C/C1=C\[C@@H]2[C@H](CC[C@]3(CO3)[C@H](OC(=O)c3cccs3)[C@H]3[C@@H](OC(=O)c4cccs4)[C@@H](C)C[C@]3(O)C1=O)C2(C)C`, the Ratio came to 31.06 in [1], 68.74 in data set [2], 8.44 in data set [3] and 12.16 in [4]. In data set [5], the CI was determined as 0.196. Besides, the result in data set [6] was Active. Also, the “inhibition (INH)” value in data set [24] and in [25] was “Active” in each case. Further, the IC50 is 26.2 µM in the data set on L5178Y [9]; 32.4 µM in the data set with L5178Y [10]; 18.8 µM in data set [12]; greater than 100 µM in [13]; 32.8 µM with L5178Y [15]; 28.3 µM in the data set on L5178Y [16]. For the same compound, the IC50 with COLO 205 is greater than 100 µM; in [21], 25.1 µM. The “Ratio IC50” value is listed as 0.81 in the data set on L5178Y [11], less than 0.19 in data set [14], 1.16 in the data set on L5178Y [17] and greater than 3.99 in [22].
